Assay results: patent US9393193B2, “Compositions for controlling heartworm infestation” (CEVA SANTA ANIMALE, priority 2010, dated 2016)

How the values were obtained:
[1] = estimated from reports from non recommended use; cited from earlier work
[2] = beagle dogs, cited from earlier work
[3] = system: Dirofilaria larvae; conditions: cited from earlier work
[4] = 14-week oral, cited from earlier work
[5] = system: Dirofilaria; experiment: Effective plasma rate of ivermectin established by the applicant; type: in vivo
Excerpt: Thus, the formulations according to the present invention provide a long term protection, e.g., at least 6 months for the collar, strip collar, or medallion formulation against infections caused by parasites.

Substance: ivermectin
- Share of collie dogs highly sensitive to ivermectin [1]: Approximately 30%
- Time course of H2B1a concentration in plasma ([2]; oral 0.5 and 2.0 mg/kg bw): reached steady-state after about three weeks
- Average increase in plasma levels on a four-fold increase in the dose ([2]; oral 0.5 vs 2.0 mg/kg bw): eight-fold increase
- Effective rate of ivermectin in the plasma ([3]; Cunningham C P et al., Am. J. Vet. Res., 2006): ≥ 0.2 ng/mL
- Effect on one month aged Dirofilaria larvae ([3]; ivermectin per se at 6 mcg/kg): able to kill efficiency one month aged Dirofilaria larvae
- Severe findings, dogs killed prior to the end of the study ([4]; 2.0 mg/kg bw group, four dogs): tremors, ataxia, anorexia and dehydration
- Findings observed ([4]; 1.0 and 2.0 mg/kg bw, beagle dogs): mydriasis and slight weight loss
- No Observable Effect Level (NOEL) ([4]; beagle dogs): 0.5 mg/kg bw
- Effective rate of ivermectin in the plasma [5]: around 0.1 ng/mL
